Results as given in patent US20250366474A1, “USE OF 4,5-DIMETHYLTHIAZOLE IN PROMOTING PLANT GROWTH” (HUAZHONG AGRICULTURAL UNIVERSITY, priority 2024, published 2025).

Tests used:
rice seedlings [1] = test: 4,5-dimethylthiazole seed soaking: rice seedling dry matter mass and chlorophyll content; assay type: in vivo, rice (Heliangyou 332); conditions: for Root System Biomass / Shoot Part Biomass / Total Biomass / Total Chlorophyll Content: 30 days of seedling cultivation; for Total Chlorophyll Content: leaves; for Root System Relative Value / Shoot Part Relative Value / Total Chlorophyll Content Relative Value / Total Relative Value: 30 days, vs distilled water soaking
Procedure: 4,5-dimethylthiazole of different weights were dissolved in distilled water to obtain seed soaking agents. Taking seed soaking with distilled water as a control, four seed soaking concentrations (0, 50, 100 and 200 mg/L) were set. Plump and healthy rice seeds (Heliangyou 332) were selected and sterilized with 0.5% sodium hypochlorite for 30 min, and then each seed soaking agent was added in a mass ratio of the seed soaking agent to seed of 1:20. The seeds were soaked in darkness under 28-30° C. condition for 48 h until radicle emergence. The seed soaking solutions were changed every 12 h. Rice substrate soil was loaded 2 cm away from a seedling tray opening, gently compacted, and watered with pure water to be wet. A rice seedling nursery substrate was “rice seedling nursery substrate” purchased from Guangzhou Shengsheng Agriculture Co., Ltd., with main ingredients including peat, vermiculite and yellow mud. Two seeds were sowed in each hole on a substrate surface, covered with the substrate soil again to the seedling tray opening, and watered to be wet. After 30 days of seedling cultivation, nine rice samples were taken from each treatment, divided into shoot parts and root system, which were dried and then weighed; and leaves were taken from another nine rice plants to measure chlorophyll content. […] Regarding the biomass of the shoot parts and the chlorophyll content, the seed soaking concentration 50 mg/L rendered the best effect (Table 2).

rice seedlings [2] = test: 4,5-dimethylthiazole root drenching: rice seedling dry matter mass and chlorophyll content; assay type: in vivo; conditions: for Root System Biomass / Shoot Part Biomass / Total Biomass / Total Chlorophyll Content: 30 days of seedling cultivation; for Total Chlorophyll Content: leaves; for Root System Relative Value / Shoot Part Relative Value / Total Chlorophyll Content Relative Value / Total Relative Value: 30 days, vs Control 0 mg/L
Procedure: Five root irrigation solution concentrations (0, 20, 50, 100 and 200 mg/L) and three types of root drenching frequency (2, 4, and 6 times) were set. 4,5-dimethylthiazole of different mass was dissolved in distilled water to obtain root irrigation solutions at different concentrations. After normal rice seed soaking and accelerated germination, rice substrate soil was loaded 2 cm away from a seedling tray opening, gently compacted, and watered with pure water to be wet. A rice seedling nursery substrate was “rice seedling nursery substrate” purchased from Guangzhou Shengsheng Agriculture Co., Ltd., with main ingredients including peat, vermiculite and yellow mud. Two seeds were sowed in each hole on a substrate surface, covered with the substrate soil again to the seedling tray opening, and watered to be wet. Three days after the rice seedling emergence, the root irrigation solutions at different concentrations was applied once every five days, until there was a water layer of 5 mm on a surface of the substrate. Each treatment was applied with a consistent amount. The drenching was conducted during cooler evening hours to minimize evaporation. After 30 days of seedling cultivation, nine rice samples were taken from each treatment, divided into shoot parts and root system, which were dried and then weighed; and leaves were taken from another nine rice plants to measure chlorophyll content.

[3] = root drenching 2 Times, 20 mg/L
[4] = root drenching 2 Times, 50 mg/L
[5] = root drenching 2 Times, 100 mg/L
[6] = root drenching 2 Times, 200 mg/L
[7] = root drenching 4 Times, 20 mg/L
[8] = root drenching 4 Times, 50 mg/L
[9] = root drenching 4 Times, 100 mg/L
[10] = root drenching 4 Times, 200 mg/L
[11] = root drenching 6 Times, 20 mg/L
[12] = root drenching 6 Times, 50 mg/L
[13] = root drenching 6 Times, 100 mg/L
[14] = root drenching 6 Times, 200 mg/L

Cc1ncsc1C [4,5-dimethylthiazole]
Root System Biomass (rice seedlings [1]; seed soaking 50 mg/L): 8.3 mg/plant | Shoot Part Biomass (rice seedlings [1]; seed soaking 50 mg/L): 80.7 mg/plant | Total Biomass (rice seedlings [1]; seed soaking 50 mg/L): 89.1 mg/plant | Total Chlorophyll Content (rice seedlings [1]; seed soaking 50 mg/L): 4.08 mg/g | Root System Relative Value (rice seedlings [1]; seed soaking 50 mg/L): 52.6% | Shoot Part Relative Value (rice seedlings [1]; seed soaking 50 mg/L): 32.3% | Total Chlorophyll Content Relative Value (rice seedlings [1]; seed soaking 50 mg/L): 9.3% | Total Relative Value (rice seedlings [1]; seed soaking 50 mg/L): 34.0% | Root System Biomass (rice seedlings [1]; seed soaking 100 mg/L): 8.6 mg/plant | Shoot Part Biomass (rice seedlings [1]; seed soaking 100 mg/L): 78.4 mg/plant | Total Biomass (rice seedlings [1]; seed soaking 100 mg/L): 87.1 mg/plant | Total Chlorophyll Content (rice seedlings [1]; seed soaking 100 mg/L): 3.98 mg/g | Root System Relative Value (rice seedlings [1]; seed soaking 100 mg/L): 58.2% | Shoot Part Relative Value (rice seedlings [1]; seed soaking 100 mg/L): 28.5% | Total Chlorophyll Content Relative Value (rice seedlings [1]; seed soaking 100 mg/L): 6.7% | Total Relative Value (rice seedlings [1]; seed soaking 100 mg/L): 31.0% | Root System Biomass (rice seedlings [1]; seed soaking 200 mg/L): 7.8 mg/plant | Shoot Part Biomass (rice seedlings [1]; seed soaking 200 mg/L): 81.1 mg/plant | Total Biomass (rice seedlings [1]; seed soaking 200 mg/L): 88.9 mg/plant | Total Chlorophyll Content (rice seedlings [1]; seed soaking 200 mg/L): 3.99 mg/g | Root System Relative Value (rice seedlings [1]; seed soaking 200 mg/L): 42.9% | Shoot Part Relative Value (rice seedlings [1]; seed soaking 200 mg/L): 32.9% | Total Chlorophyll Content Relative Value (rice seedlings [1]; seed soaking 200 mg/L): 7.0% | Total Relative Value (rice seedlings [1]; seed soaking 200 mg/L): 33.7% | effect on biomass of the shoot parts and chlorophyll content, comparison of seed soaking concentrations (rice seedlings [1]; seed soaking concentration 50 mg/L): best effect | Root System Biomass (rice seedlings [2]; [3]): 7.5 mg/plant | Shoot Part Biomass (rice seedlings [2]; [3]): 82.9 mg/plant | Total Biomass (rice seedlings [2]; [3]): 90.4 mg/plant | Total Chlorophyll Content (rice seedlings [2]; [3]): 4.77 mg/g | Root System Relative Value (rice seedlings [2]; [3]): 36.8% | Shoot Part Relative Value (rice seedlings [2]; [3]): 35.9% | Total Chlorophyll Content Relative Value (rice seedlings [2]; [3]): 27.8% | Total Relative Value (rice seedlings [2]; [3]): 36.0% | Root System Biomass (rice seedlings [2]; [4]): 8.0 mg/plant | Shoot Part Biomass (rice seedlings [2]; [4]): 79.8 mg/plant | Total Biomass (rice seedlings [2]; [4]): 87.9 mg/plant | Total Chlorophyll Content (rice seedlings [2]; [4]): 4.29 mg/g | Root System Relative Value (rice seedlings [2]; [4]): 46.7% | Shoot Part Relative Value (rice seedlings [2]; [4]): 30.8% | Total Chlorophyll Content Relative Value (rice seedlings [2]; [4]): 15.0% | Total Relative Value (rice seedlings [2]; [4]): 32.1% | Root System Biomass (rice seedlings [2]; [5]): 8.3 mg/plant | Shoot Part Biomass (rice seedlings [2]; [5]): 76.3 mg/plant | Total Biomass (rice seedlings [2]; [5]): 84.6 mg/plant | Total Chlorophyll Content (rice seedlings [2]; [5]): 3.82 mg/g | Root System Relative Value (rice seedlings [2]; [5]): 52.2% | Shoot Part Relative Value (rice seedlings [2]; [5]): 25.0% | Total Chlorophyll Content Relative Value (rice seedlings [2]; [5]): 2.5% | Total Relative Value (rice seedlings [2]; [5]): 27.2% | Root System Biomass (rice seedlings [2]; [6]): 6.3 mg/plant | Shoot Part Biomass (rice seedlings [2]; [6]): 62.9 mg/plant | Total Biomass (rice seedlings [2]; [6]): 69.2 mg/plant | Total Chlorophyll Content (rice seedlings [2]; [6]): 4.51 mg/g | Root System Relative Value (rice seedlings [2]; [6]): 15.6% | Shoot Part Relative Value (rice seedlings [2]; [6]): 3.1% | Total Chlorophyll Content Relative Value (rice seedlings [2]; [6]): 20.8% | Total Relative Value (rice seedlings [2]; [6]): 4.1% | Root System Biomass (rice seedlings [2]; [7]): 7.0 mg/plant | Shoot Part Biomass (rice seedlings [2]; [7]): 74.5 mg/plant | Total Biomass (rice seedlings [2]; [7]): 81.5 mg/plant | Total Chlorophyll Content (rice seedlings [2]; [7]): 4.15 mg/g | Root System Relative Value (rice seedlings [2]; [7]): 27.7% | Shoot Part Relative Value (rice seedlings [2]; [7]): 22.1% | Total Chlorophyll Content Relative Value (rice seedlings [2]; [7]): 11.2% | Total Relative Value (rice seedlings [2]; [7]): 22.6% | Root System Biomass (rice seedlings [2]; [8]): 8.0 mg/plant | Shoot Part Biomass (rice seedlings [2]; [8]): 79.9 mg/plant | Total Biomass (rice seedlings [2]; [8]): 87.9 mg/plant | Total Chlorophyll Content (rice seedlings [2]; [8]): 4.09 mg/g | Root System Relative Value (rice seedlings [2]; [8]): 46.3% | Shoot Part Relative Value (rice seedlings [2]; [8]): 30.9% | Total Chlorophyll Content Relative Value (rice seedlings [2]; [8]): 9.8% | Total Relative Value (rice seedlings [2]; [8]): 32.2% | Root System Biomass (rice seedlings [2]; [9]): 7.7 mg/plant | Shoot Part Biomass (rice seedlings [2]; [9]): 79.6 mg/plant | Total Biomass (rice seedlings [2]; [9]): 87.3 mg/plant | Total Chlorophyll Content (rice seedlings [2]; [9]): 3.82 mg/g | Root System Relative Value (rice seedlings [2]; [9]): 41.6% | Shoot Part Relative Value (rice seedlings [2]; [9]): 30.4% | Total Chlorophyll Content Relative Value (rice seedlings [2]; [9]): 2.3% | Total Relative Value (rice seedlings [2]; [9]): 31.3% | Root System Biomass (rice seedlings [2]; [10]): 5.4 mg/plant | Shoot Part Biomass (rice seedlings [2]; [10]): 70.1 mg/plant | Total Biomass (rice seedlings [2]; [10]): 75.5 mg/plant | Total Chlorophyll Content (rice seedlings [2]; [10]): 3.89 mg/g | Root System Relative Value (rice seedlings [2]; [10]): −0.7% | Shoot Part Relative Value (rice seedlings [2]; [10]): 14.8% | Total Chlorophyll Content Relative Value (rice seedlings [2]; [10]): 4.2% | Total Relative Value (rice seedlings [2]; [10]): 13.6% | Root System Biomass (rice seedlings [2]; [11]): 8.6 mg/plant | Shoot Part Biomass (rice seedlings [2]; [11]): 82.7 mg/plant | Total Biomass (rice seedlings [2]; [11]): 91.3 mg/plant | Total Chlorophyll Content (rice seedlings [2]; [11]): 4.03 mg/g | Root System Relative Value (rice seedlings [2]; [11]): 51.8% | Shoot Part Relative Value (rice seedlings [2]; [11]): 35.4% | Total Chlorophyll Content Relative Value (rice seedlings [2]; [11]): 8.1% | Total Relative Value (rice seedlings [2]; [11]): 37.3% | Root System Biomass (rice seedlings [2]; [12]): 7.9 mg/plant | Shoot Part Biomass (rice seedlings [2]; [12]): 85.8 mg/plant | Total Biomass (rice seedlings [2]; [12]): 93.7 mg/plant | Total Chlorophyll Content (rice seedlings [2]; [12]): 4.32 mg/g | Root System Relative Value (rice seedlings [2]; [12]): 44.7% | Shoot Part Relative Value (rice seedlings [2]; [12]): 40.6% | Total Chlorophyll Content Relative Value (rice seedlings [2]; [12]): 15.9% | Total Relative Value (rice seedlings [2]; [12]): 41.0% | Root System Biomass (rice seedlings [2]; [13]): 7.1 mg/plant | Shoot Part Biomass (rice seedlings [2]; [13]): 74.7 mg/plant | Total Biomass (rice seedlings [2]; [13]): 81.8 mg/plant | Total Chlorophyll Content (rice seedlings [2]; [13]): 4.20 mg/g | Root System Relative Value (rice seedlings [2]; [13]): 30.2% | Shoot Part Relative Value (rice seedlings [2]; [13]): 22.4% | Total Chlorophyll Content Relative Value (rice seedlings [2]; [13]): 12.7% | Total Relative Value (rice seedlings [2]; [13]): 23.1% | Root System Biomass (rice seedlings [2]; [14]): 7.1 mg/plant | Shoot Part Biomass (rice seedlings [2]; [14]): 63.5 mg/plant | Total Biomass (rice seedlings [2]; [14]): 70.6 mg/plant | Total Chlorophyll Content (rice seedlings [2]; [14]): 3.79 mg/g | Root System Relative Value (rice seedlings [2]; [14]): 29.7% | Shoot Part Relative Value (rice seedlings [2]; [14]): 4.1% | Total Chlorophyll Content Relative Value (rice seedlings [2]; [14]): 1.6% | Total Relative Value (rice seedlings [2]; [14]): 6.2%
